The supplement of paper PMC10307832

Assays:
Experiment in all cases: relative viability (nuclei count vs DMSO), 5 days (fraction); higher = more cells survive
R406 + Bortezomib = compound: COc1cc(Nc2ncc(F)c(Nc3ccc4c(n3)NC(=O)C(C)(C)O4)n2)cc(OC)c1OC [R406] + CC(C)C[C@H](NC(=O)[C@H](Cc1ccccc1)NC(=O)c1cnccn1)B(O)O [Bortezomib] (partner 0.002 µM)
Method in brief: (§1)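 Each reported value is a median over duplicate plates. It expresses relative viability: treated-well nuclei count divided by vehicle-well nuclei count. Lung cancer cell lines in 1536-well plates were dosed by pin tool a day after seeding, alone with one drug or with a fixed anchor-drug dose plus five library-drug doses (not always all listed) in √10 steps, and nuclei were counted after 5 days.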

R406 + Pictilisib = compound: COc1cc(Nc2ncc(F)c(Nc3ccc4c(n3)NC(=O)C(C)(C)O4)n2)cc(OC)c1OC [R406] + CS(=O)(=O)N1CCN(Cc2cc3nc(-c4cccc5[nH]ncc45)nc(N4CCOCC4)c3s2)CC1 [Pictilisib] (partner 1 µM)
Method in brief: as §1

R406 + Olaparib = compound: COc1cc(Nc2ncc(F)c(Nc3ccc4c(n3)NC(=O)C(C)(C)O4)n2)cc(OC)c1OC [R406] + O=C(c1cc(Cc2n[nH]c(=O)c3ccccc23)ccc1F)N1CCN(C(=O)C2CC2)CC1 [Olaparib] (partner 8 µM)
Method in brief: as §1

Daporinad + Dasatinib = compound: O=C(/C=C/c1cccnc1)NCCCCC1CCN(C(=O)c2ccccc2)CC1 [Daporinad] + Cc1nc(Nc2ncc(C(=O)Nc3c(C)cccc3Cl)s2)cc(N2CCN(CCO)CC2)n1 [Dasatinib] (partner 0.075 µM)
Method in brief: as §1

Cell Line	relative viability (R406 + Bortezomib; first compound 0.08 µM)	relative viability (R406 + Bortezomib; first compound 0.253 µM)	relative viability (R406 + Bortezomib; first compound 0.8 µM)	relative viability (R406 + Bortezomib; first compound 2.53 µM)	relative viability (R406 + Bortezomib; first compound 8 µM)	relative viability (R406 + Pictilisib; first compound 0.08 µM)	relative viability (R406 + Pictilisib; first compound 0.253 µM)	relative viability (R406 + Pictilisib; first compound 0.8 µM)	relative viability (R406 + Pictilisib; first compound 2.53 µM)	relative viability (R406 + Pictilisib; first compound 8 µM)	relative viability (R406 + Olaparib; first compound 0.08 µM)	relative viability (R406 + Olaparib; first compound 0.253 µM)	relative viability (R406 + Olaparib; first compound 0.8 µM)	relative viability (R406 + Olaparib; first compound 2.53 µM)	relative viability (R406 + Olaparib; first compound 8 µM)	relative viability (Daporinad + Dasatinib; first compound 0.0005 µM)	relative viability (Daporinad + Dasatinib; first compound 0.001581 µM)	relative viability (Daporinad + Dasatinib; first compound 0.005 µM)	relative viability (Daporinad + Dasatinib; first compound 0.01581 µM)
NCI-H2087	0.815	1.02	0.847	0.428	0.751	0.876	1.07	0.92	0.352	0.717	0.558	0.581	0.739	0.488	0.32	0.787	1.17	0.934	0.923
HCC-366	1.08	1.02	1.3	–	0.428	0.128	0.163	0.141	0.113	0.122	0.33	0.391	0.349	0.316	0.0913	0.697	0.738	0.646	0.738
NCI-H838	0.709	1.46	1.01	0.11	0.153	0.412	0.689	0.407	0.199	0.178	0.725	0.798	0.908	0.248	0.142	0.276	0.29	0.296	0.296
LU99A	1.07	0.968	1.26	–	0.512	0.368	0.296	0.357	–	0.211	0.244	0.258	0.267	0.218	0.234	0.539	0.492	0.708	0.547
NCI-H650	0.712	0.852	0.977	0.625	0.389	0.89	1.04	0.993	0.613	0.604	0.342	0.42	0.435	0.313	0.301	0.391	0.395	0.473	0.53
HCC-78	0.491	0.541	0.51	0.306	0.241	0.233	0.219	0.259	0.173	0.185	0.83	0.896	0.848	0.656	0.394	0.363	–	0.328	0.379
NCI-H1755	0.994	1	0.974	0.748	0.571	0.469	0.415	0.496	0.221	0.195	0.801	0.88	0.869	0.792	0.502	0.414	0.435	0.388	0.408
NCI-H3122	0.97	0.972	1.03	1.01	0.947	0.581	0.59	0.668	0.576	0.604	0.637	0.739	0.69	0.566	0.625	0.664	0.73	0.807	0.59
PC-3 [JPC-3]	0.916	0.866	0.927	0.758	0.755	0.764	0.762	0.814	0.467	0.421	1.15	1.3	1.13	0.838	0.452	0.928	1.01	0.943	0.947
NCI-H2347	1.07	1.25	1.19	0.815	0.642	0.53	0.952	0.605	0.624	0.28	0.556	0.583	0.604	0.531	0.47	0.326	0.308	0.342	0.299
NCI-H2228	1.05	1.15	1.32	0.118	0.304	0.587	0.222	0.532	0.169	0.187	0.487	0.731	0.848	0.341	0.238	0.543	0.563	0.569	0.554
EKVX	1.01	1.17	1.45	0.994	0.6	0.436	0.41	0.422	0.357	0.347	0.928	0.971	0.995	0.717	0.655	0.47	0.535	0.619	0.838
HOP-62	0.835	0.656	0.559	1.02	0.82	0.643	0.846	0.863	0.467	0.488	0.252	0.415	0.575	0.517	0.495	0.62	0.809	0.721	0.587
NCI-H2126	1.05	1.13	1.24	1.03	1.04	0.508	0.502	0.49	0.437	0.493	0.933	0.943	0.933	0.855	0.557	0.681	0.57	0.547	0.727
EPLC-272H	0.813	0.983	0.984	0.51	0.495	0.293	0.326	0.328	0.156	0.119	0.8	0.754	0.707	0.325	0.112	0.393	0.482	0.458	0.473
RERF-LC-KJ	1.15	1.23	1.26	0.932	1.01	0.749	0.488	0.64	0.43	0.502	1.05	0.947	0.908	0.756	0.585	0.757	0.804	0.975	0.804
NCI-H661	0.769	0.877	0.945	0.721	0.469	0.367	0.456	0.459	0.345	0.271	0.731	0.783	0.673	0.697	0.591	0.939	1	0.518	0.388

Cell Line	relative viability (R406 + Bortezomib; first compound 0.08 µM)	relative viability (R406 + Bortezomib; first compound 0.253 µM)	relative viability (R406 + Bortezomib; first compound 0.8 µM)	relative viability (R406 + Bortezomib; first compound 2.53 µM)	relative viability (R406 + Bortezomib; first compound 8 µM)	relative viability (R406 + Pictilisib; first compound 0.08 µM)	relative viability (R406 + Pictilisib; first compound 0.253 µM)	relative viability (R406 + Pictilisib; first compound 0.8 µM)	relative viability (R406 + Pictilisib; first compound 2.53 µM)	relative viability (R406 + Pictilisib; first compound 8 µM)	relative viability (R406 + Olaparib; first compound 0.08 µM)	relative viability (R406 + Olaparib; first compound 0.253 µM)	relative viability (R406 + Olaparib; first compound 0.8 µM)	relative viability (R406 + Olaparib; first compound 2.53 µM)	relative viability (R406 + Olaparib; first compound 8 µM)	relative viability (Daporinad + Dasatinib; first compound 0.0005 µM)	relative viability (Daporinad + Dasatinib; first compound 0.001581 µM)	relative viability (Daporinad + Dasatinib; first compound 0.005 µM)	relative viability (Daporinad + Dasatinib; first compound 0.01581 µM)
PC-14	0.874	0.957	0.909	0.604	0.704	0.669	0.835	0.703	0.319	0.381	0.271	0.257	0.225	0.291	0.0748	0.276	0.315	0.293	0.363
COR-L 105	0.68	0.84	1.06	0.315	0.246	0.453	0.401	0.38	0.366	0.303	0.592	0.704	0.554	0.59	0.602	0.317	0.376	0.346	0.416
NCI-H2405	1.01	1.11	1.05	0.941	0.845	0.514	0.475	0.396	0.265	0.175	0.857	0.879	0.879	0.748	0.306	0.168	0.226	0.231	0.252
NCI-H727	0.803	0.965	1.1	0.278	0.747	0.386	0.508	0.354	0.175	0.252	0.533	0.67	0.666	0.75	0.663	0.475	0.327	0.437	0.364
NCI-H1915	0.963	1.01	0.985	0.79	0.898	0.942	1.03	0.972	0.364	0.74	0.286	0.267	0.263	0.237	0.237	0.299	0.331	0.399	0.337
CAL-12T	0.927	1.18	1.11	0.423	0.218	0.296	0.575	0.457	0.193	0.185	0.71	0.746	0.747	0.687	0.55	0.342	0.409	0.37	0.134
NCI-H441	–	0.383	0.713	–	0.331	0.387	0.375	0.544	0.206	0.258	0.429	0.693	0.619	0.489	0.322	0.665	0.614	0.618	0.662
LXF-289	0.913	0.953	1.01	1.04	0.483	0.724	0.799	0.845	0.634	0.268	1.08	1.18	1.12	1.02	0.219	0.178	0.292	0.214	0.289
NCI-H520	0.604	0.804	0.971	0.209	0.157	0.286	0.408	0.377	0.191	0.195	0.314	0.34	0.329	0.194	0.126	0.248	0.227	0.162	0.182
NCI-H2009	0.983	1.11	1.24	0.427	0.27	0.793	0.76	0.892	0.289	0.192	0.687	0.706	0.844	0.489	0.546	0.295	0.337	0.277	0.22
201T	1.11	1.09	1.11	1.04	0.993	0.677	0.725	0.669	0.591	0.57	0.853	0.867	0.873	0.824	0.515	0.52	0.555	0.595	0.6
NCI-H23	0.953	1.45	1.35	0.906	0.278	0.521	0.543	0.695	0.165	0.328	0.277	0.271	0.236	0.263	0.139	0.895	0.699	0.85	0.829
LOU-NH91	0.427	0.4	0.469	0.496	0.471	0.524	0.526	0.46	0.405	0.414	0.898	0.956	0.934	0.658	0.478	0.544	0.497	0.654	0.745
NCI-H2085	0.996	1.14	1.1	0.708	0.775	0.413	0.505	0.459	0.482	0.37	0.79	0.823	0.788	0.738	0.458	0.268	0.244	0.267	0.284
COR-L23	0.942	1.14	1.06	0.907	0.523	0.755	0.926	1.14	0.681	0.233	0.385	0.354	0.334	0.246	0.209	0.541	0.575	0.38	0.183
BEN	0.685	1.03	1.02	0.88	0.553	0.581	0.642	0.57	0.623	0.447	1.09	1.24	1.28	1.04	0.871	0.316	0.251	0.318	0.414
ChaGo-K-1	1.02	1.06	1.11	0.823	0.347	0.719	0.917	0.791	0.584	0.391	0.381	0.485	0.438	0.422	0.296	0.672	0.5	0.476	0.278
